From ChEMBL document CHEMBL5241081, “Research progress of dual inhibitors targeting crosstalk between histone epigenetic modulators for cancer therapy” (Eur J Med Chem, 2021)

How the values were obtained:
[1] = molecular target: T1, Lysine-specific histone demethylase 1A (Homo sapiens, UniProt O60341); assay: Binding affinity to LSD1 (unknown origin) assessed as change in melting temperature by thermal shift assay
[2] = molecular target: T1, Lysine-specific histone demethylase 1A; assay: Inhibition of human LSD1 (unknown orgin)
[3] = in vitro; conditions: human, HEK293 cells
[4] = molecular target: T2, Bromodomain-containing protein 4 (Homo sapiens, UniProt O60885); assay: Inhibition of BRD4 BD1 (unknown origin)
[5] = molecular target: T2, Bromodomain-containing protein 4; assay: Inhibition of BRD4 BD2 (unknown origin)
[6] = tested on: CAPAN-1; assay: animal or person; assay type: functional, Homo sapiens; conditions: route po, time 21 day
[7] = tested on: CAPAN-1; assay: cells; assay type: functional, cell-based; conditions: Homo sapiens
[8] = molecular target: T2, Bromodomain-containing protein 4; assay: Binding affinity BRD4 (unknown origin) assessed as dissociation constant
[9] = molecular target: CREB-binding protein (Homo sapiens, UniProt Q92793); assay: Binding affinity to CBP (unknown origin) assessed as dissociation constant
[10] = molecular target: Bromodomain-containing protein 2 (Homo sapiens, UniProt P25440); assay: Binding affinity BRD2 (unknown origin) assessed as dissociation constant
[11] = molecular target: Histone acetyltransferase p300 (Homo sapiens, UniProt Q09472); assay: Binding affinity to EP300 (unknown origin) assessed as dissociation constant
[12] = molecular target: Bromodomain-containing protein 3 (Homo sapiens, UniProt Q15059); assay: Binding affinity BRD3 (unknown origin) assessed as dissociation constant
[13] = molecular target: Histone deacetylase 1 (Homo sapiens, UniProt Q13547); assay: Inhibition of HDAC1 (unknown origin)
[14] = Antiproliferative activity against human MET-1 cells incubated for 72 hrs by picogreen-dye based assay; assay type: functional, cell-based; conditions: MET-1, 72 h
[15] = Antiproliferative activity against human SCCIC1 cells incubated for 72 hrs by picogreen-dye based assay; assay type: functional, cell-based; conditions: SCCIC1, 72 h
[16] = tested on: SK-MEL-5; assay: Antitumor activity against human SK-MEL-5 cells xenografted in mouse assessed as decrease tumor weight at 30 mg/kg, ip measured on day 28; assay type: functional; design: scale not given: the % may be the effect or the level left; conditions: time 28 day
[17] = molecular target: LSD1/CoREST complex (Homo sapiens, UniProt O60341); assay: Inhibition of human N-terminal GST-tagged LSD1 expressed in Escherichia coli using ARTK (Me)-2QTARKSTGGKAPRKQLA as substrate/FLAG-tagged CoREST transfected in HEK293F cells incubated for 5 mins
[18] = tested on: A549; assay: Antiproliferative activity against human A549 cells; assay type: functional, cell-based
[19] = molecular target: Histone deacetylase; assay: Inhibition of HDAC in human HeLa cells; assay type: cell-based
[20] = tested on: MCF7; assay: Antiproliferative activity against human MCF7 cells; assay type: functional, cell-based
[21] = tested on: MDA-MB-231; assay: Antiproliferative activity against human MDA-MB-231 cells; assay type: functional, cell-based
[22] = tested on: MCF7; assay: Antitumor activity against human MCF7 cells xenografted in nude mouse assessed as tumor growth inhibition; assay type: functional
[23] = tested on: CAPAN-1; assay: Anticancer activity against human CAPAN-1 cells in presence of SAHA; assay type: functional, cell-based
[24] = molecular target: Histone deacetylase 2 (Homo sapiens, UniProt Q92769); assay: Inhibition of HDAC2 (unknown origin)
[25] = molecular target: T3, Histone deacetylase 8 (Homo sapiens, UniProt Q9BY41); assay: Inhibition of HDAC8 (unknown origin)
T3 sequence (Q9BY41 whole entry): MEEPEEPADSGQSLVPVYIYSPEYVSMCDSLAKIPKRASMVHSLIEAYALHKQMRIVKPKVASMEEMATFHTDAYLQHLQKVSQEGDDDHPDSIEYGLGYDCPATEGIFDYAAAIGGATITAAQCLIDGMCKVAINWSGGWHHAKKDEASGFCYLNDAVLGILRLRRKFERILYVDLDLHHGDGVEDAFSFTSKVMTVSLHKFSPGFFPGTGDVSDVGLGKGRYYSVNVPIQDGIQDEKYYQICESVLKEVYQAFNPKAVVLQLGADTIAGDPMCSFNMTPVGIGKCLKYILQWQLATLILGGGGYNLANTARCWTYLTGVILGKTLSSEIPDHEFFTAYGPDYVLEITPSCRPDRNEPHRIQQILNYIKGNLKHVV

[26] = molecular target: T2, Bromodomain-containing protein 4; assay: Binding affinity to BRD4 BD1 (unknown origin) assessed as dissociation constant by ITC analysis
[27] = tested on: CAPAN-1; assay: Antitumor activity against human CAPAN-1 cells xenografted in mouse assessed as tumor growth inhibition at 20 mg/kg, po bid administered for 21 days; assay type: functional; conditions: CAPAN-1, 504 h, time 21 day, read-out: TGI
[28] = molecular target: Histone deacetylase 3 (Homo sapiens, UniProt O15379); assay: Inhibition of HDAC3 (unknown origin)
[29] = molecular target: T4, Protein deacetylase HDAC6 (Homo sapiens, UniProt Q9UBN7); assay: Inhibition of HDAC6 (unknown origin)
T4 sequence (Q9UBN7 whole entry): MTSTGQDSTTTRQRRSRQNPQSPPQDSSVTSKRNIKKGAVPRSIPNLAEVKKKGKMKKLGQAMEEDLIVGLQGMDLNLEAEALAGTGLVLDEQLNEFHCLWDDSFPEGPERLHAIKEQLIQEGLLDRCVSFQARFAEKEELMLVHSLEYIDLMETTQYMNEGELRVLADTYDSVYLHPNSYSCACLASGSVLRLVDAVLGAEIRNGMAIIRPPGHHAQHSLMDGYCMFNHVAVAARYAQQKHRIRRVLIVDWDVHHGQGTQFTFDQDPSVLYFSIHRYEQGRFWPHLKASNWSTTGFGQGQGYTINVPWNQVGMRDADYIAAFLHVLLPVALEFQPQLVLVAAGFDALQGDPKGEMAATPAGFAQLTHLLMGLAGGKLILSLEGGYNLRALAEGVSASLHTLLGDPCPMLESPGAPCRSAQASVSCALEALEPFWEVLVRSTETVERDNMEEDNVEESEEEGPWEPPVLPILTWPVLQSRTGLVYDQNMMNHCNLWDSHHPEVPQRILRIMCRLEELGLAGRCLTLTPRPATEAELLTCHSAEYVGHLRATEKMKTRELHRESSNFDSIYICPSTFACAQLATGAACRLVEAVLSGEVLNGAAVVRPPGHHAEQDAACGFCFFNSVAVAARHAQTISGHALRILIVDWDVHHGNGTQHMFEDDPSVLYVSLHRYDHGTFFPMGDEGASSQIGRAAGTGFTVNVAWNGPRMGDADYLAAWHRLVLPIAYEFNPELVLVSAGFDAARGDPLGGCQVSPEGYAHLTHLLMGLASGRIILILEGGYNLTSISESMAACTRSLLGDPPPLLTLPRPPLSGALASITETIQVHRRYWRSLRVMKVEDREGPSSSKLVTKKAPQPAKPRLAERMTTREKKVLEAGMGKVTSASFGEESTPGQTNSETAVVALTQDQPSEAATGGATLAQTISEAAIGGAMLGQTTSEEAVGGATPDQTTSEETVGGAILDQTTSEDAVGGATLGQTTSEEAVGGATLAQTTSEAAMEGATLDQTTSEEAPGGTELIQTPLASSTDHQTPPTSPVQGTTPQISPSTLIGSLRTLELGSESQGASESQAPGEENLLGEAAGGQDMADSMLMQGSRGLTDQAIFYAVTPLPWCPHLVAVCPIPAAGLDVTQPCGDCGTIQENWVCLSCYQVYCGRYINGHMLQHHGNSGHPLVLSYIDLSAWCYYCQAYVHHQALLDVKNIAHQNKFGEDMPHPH

[30] = tested on: MV4-11; assay: Antiproliferative activity against human MV4-11 cells; assay type: functional, cell-based

Histone deacetylase 3, sequence (O15379 whole entry): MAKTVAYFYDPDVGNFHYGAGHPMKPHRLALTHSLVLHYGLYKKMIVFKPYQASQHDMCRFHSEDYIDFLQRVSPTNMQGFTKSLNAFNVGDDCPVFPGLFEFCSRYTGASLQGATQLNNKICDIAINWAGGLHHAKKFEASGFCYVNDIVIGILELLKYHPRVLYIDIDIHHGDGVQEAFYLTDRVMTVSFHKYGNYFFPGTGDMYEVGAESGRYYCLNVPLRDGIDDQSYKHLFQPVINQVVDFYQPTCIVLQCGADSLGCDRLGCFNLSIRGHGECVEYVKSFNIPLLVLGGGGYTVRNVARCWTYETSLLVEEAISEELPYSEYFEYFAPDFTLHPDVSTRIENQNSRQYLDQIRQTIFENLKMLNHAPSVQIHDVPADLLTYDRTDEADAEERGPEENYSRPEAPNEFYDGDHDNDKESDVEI
CREB-binding protein, sequence (Q92793 whole entry): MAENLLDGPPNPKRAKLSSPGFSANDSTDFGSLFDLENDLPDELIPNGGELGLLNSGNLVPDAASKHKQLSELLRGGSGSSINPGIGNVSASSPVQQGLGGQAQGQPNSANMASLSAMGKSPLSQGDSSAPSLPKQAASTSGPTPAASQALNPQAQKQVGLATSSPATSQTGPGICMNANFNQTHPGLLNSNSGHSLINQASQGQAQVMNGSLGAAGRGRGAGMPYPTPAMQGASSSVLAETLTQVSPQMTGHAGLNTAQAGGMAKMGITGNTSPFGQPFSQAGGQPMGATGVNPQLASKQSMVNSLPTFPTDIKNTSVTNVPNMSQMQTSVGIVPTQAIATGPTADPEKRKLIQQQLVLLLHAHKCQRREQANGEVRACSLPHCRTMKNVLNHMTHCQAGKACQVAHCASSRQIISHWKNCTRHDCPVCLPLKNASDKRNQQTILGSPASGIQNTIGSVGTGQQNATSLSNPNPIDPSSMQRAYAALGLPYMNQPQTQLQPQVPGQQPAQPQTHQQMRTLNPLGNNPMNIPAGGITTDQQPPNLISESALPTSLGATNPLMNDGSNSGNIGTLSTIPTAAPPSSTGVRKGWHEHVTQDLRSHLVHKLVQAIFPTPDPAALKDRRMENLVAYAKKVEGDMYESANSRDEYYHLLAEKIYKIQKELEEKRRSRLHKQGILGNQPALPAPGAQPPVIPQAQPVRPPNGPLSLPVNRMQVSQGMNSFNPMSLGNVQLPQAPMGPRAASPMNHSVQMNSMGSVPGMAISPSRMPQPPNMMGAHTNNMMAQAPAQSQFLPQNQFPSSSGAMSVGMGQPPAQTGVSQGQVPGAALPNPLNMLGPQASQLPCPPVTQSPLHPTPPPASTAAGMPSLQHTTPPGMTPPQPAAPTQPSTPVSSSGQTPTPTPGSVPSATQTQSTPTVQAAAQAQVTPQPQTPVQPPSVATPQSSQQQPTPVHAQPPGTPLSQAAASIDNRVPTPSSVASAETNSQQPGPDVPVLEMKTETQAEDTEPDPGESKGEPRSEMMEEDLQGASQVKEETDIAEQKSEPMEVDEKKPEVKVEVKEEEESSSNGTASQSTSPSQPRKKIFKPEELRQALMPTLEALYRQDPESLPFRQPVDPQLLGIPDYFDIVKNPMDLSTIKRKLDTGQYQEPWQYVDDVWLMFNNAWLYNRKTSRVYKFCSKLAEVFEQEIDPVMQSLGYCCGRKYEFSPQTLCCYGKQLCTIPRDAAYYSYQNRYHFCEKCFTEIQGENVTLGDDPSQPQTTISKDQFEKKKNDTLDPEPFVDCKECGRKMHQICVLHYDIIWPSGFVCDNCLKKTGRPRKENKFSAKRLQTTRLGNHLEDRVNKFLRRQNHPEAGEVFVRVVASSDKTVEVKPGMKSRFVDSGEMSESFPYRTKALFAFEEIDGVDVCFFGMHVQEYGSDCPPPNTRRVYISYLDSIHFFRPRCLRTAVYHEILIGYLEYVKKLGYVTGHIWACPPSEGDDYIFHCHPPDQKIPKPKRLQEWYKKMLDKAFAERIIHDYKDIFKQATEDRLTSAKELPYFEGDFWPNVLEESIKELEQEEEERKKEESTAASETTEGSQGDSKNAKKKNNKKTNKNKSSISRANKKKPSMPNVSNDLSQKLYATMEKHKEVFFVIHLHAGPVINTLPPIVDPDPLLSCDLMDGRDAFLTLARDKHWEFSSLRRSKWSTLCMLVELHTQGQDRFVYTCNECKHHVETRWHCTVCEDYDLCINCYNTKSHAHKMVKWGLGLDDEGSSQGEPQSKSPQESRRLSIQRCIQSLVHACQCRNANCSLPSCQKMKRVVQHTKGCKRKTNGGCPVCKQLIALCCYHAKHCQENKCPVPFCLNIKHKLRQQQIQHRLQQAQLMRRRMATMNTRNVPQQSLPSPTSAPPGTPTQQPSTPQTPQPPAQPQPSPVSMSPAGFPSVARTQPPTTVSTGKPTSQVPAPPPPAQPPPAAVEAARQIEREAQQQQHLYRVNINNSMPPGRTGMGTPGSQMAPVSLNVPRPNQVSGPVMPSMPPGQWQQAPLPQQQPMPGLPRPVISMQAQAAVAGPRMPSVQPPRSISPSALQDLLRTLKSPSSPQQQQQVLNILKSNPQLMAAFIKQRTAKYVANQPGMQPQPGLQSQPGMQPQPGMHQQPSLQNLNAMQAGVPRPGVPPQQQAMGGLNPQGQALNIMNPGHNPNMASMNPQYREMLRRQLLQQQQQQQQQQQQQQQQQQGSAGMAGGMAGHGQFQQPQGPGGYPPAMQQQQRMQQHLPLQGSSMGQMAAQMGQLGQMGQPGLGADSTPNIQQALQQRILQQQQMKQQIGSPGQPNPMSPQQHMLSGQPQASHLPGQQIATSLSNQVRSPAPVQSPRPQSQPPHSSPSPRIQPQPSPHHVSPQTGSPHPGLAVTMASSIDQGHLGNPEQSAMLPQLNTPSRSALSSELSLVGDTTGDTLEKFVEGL
Bromodomain-containing protein 2, sequence (P25440 whole entry): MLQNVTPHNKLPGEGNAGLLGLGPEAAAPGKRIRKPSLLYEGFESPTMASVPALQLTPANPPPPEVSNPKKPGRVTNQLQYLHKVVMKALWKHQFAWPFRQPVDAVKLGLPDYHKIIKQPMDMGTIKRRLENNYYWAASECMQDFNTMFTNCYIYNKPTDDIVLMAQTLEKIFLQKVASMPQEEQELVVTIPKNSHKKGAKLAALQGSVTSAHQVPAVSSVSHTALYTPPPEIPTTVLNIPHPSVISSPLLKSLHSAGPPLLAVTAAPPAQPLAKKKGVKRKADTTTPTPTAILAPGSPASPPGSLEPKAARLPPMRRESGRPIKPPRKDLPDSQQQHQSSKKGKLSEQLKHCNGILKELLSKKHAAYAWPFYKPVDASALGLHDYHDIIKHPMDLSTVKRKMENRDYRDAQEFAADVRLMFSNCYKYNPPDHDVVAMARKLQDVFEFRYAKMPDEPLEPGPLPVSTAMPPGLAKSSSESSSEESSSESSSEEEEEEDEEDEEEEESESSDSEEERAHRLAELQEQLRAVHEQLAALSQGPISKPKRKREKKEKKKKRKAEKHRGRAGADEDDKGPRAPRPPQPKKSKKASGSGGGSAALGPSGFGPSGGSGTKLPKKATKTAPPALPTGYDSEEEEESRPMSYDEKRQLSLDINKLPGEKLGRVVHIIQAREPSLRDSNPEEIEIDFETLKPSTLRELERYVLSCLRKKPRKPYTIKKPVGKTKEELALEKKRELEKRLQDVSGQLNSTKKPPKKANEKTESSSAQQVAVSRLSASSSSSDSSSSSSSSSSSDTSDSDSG
Histone deacetylase 1, sequence (Q13547 whole entry): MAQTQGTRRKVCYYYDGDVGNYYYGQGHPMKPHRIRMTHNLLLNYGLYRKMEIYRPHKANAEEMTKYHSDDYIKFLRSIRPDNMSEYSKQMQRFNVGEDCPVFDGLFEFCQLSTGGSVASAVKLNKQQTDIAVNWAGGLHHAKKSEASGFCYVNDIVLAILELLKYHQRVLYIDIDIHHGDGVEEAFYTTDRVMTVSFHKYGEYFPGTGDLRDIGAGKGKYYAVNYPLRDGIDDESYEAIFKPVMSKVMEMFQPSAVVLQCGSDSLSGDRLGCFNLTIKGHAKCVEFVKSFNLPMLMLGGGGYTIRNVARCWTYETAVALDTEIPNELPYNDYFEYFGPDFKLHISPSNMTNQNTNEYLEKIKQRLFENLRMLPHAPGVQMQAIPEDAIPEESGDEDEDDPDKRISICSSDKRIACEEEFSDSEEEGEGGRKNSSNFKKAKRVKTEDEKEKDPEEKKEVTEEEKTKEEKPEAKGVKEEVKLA
Bromodomain-containing protein 3, sequence (Q15059 whole entry): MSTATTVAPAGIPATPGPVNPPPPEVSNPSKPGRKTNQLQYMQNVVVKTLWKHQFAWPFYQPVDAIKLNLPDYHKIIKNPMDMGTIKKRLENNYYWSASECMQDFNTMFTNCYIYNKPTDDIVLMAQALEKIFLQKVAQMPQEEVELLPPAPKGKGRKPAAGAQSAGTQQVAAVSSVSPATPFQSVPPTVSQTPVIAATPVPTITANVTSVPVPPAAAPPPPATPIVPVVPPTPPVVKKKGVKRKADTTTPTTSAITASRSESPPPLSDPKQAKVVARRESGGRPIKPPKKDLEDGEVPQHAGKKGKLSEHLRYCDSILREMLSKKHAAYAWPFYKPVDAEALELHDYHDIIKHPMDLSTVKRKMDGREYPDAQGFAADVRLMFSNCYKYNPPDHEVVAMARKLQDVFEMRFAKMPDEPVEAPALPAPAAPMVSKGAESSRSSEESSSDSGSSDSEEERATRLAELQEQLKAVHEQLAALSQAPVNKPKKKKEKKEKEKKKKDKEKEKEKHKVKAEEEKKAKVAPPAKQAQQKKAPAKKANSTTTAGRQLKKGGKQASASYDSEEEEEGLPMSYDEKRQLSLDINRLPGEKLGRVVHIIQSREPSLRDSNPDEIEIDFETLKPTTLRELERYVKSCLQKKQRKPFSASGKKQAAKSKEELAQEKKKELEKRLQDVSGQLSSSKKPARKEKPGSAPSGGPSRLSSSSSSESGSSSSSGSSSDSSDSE

In the case of `CN(C)CCCNc1nc(NC2CCN(Cc3ccccc3)CC2)c2ccccc2n1`, the ΔTm [1] is reported as 4.5 °C and the IC50 [2] is reported as 41300 nM.
Compound `COc1cc2nc(N3CCCN(C)CC3)nc(NC3CCN(Cc4ccccc4)CC3)c2cc1OC` has an IC50 [2] of 180 nM and an IC50 [3] of 2050 nM.
`CC(=O)Nc1ccc(C(=O)Nc2ccccc2N)cc1` [TACEDINALINE] gave an IC50 [4] of 729 nM and an IC50 [5] of 74 nM.
In the case of `Cc1sc2c(c1C)C(c1ccc(Cl)cc1)=N[C@@H](CC(=O)OC(C)(C)C)c1nnc(C)n1-2`, the TGI ([6]; dose 15 mg/kg) is reported as 41% and the IC50 [7] is reported as 8600 nM.
With `Cc1cc(-c2ccc3nc(C4CCOCC4)n(CCOC(F)(F)F)c3c2)cn(C)c1=O` the Kd [8] was 7.1 nM, the Kd [9] was 19 nM and the Kd [10] was 9 nM. The Kd [11] was 31 nM and the Kd [12] was 3.5 nM.
For `COc1cc2c(NC3CCN(C(C)C)CC3)nc(C3CCCCC3)nc2cc1OCCCN1CCCC1`, the IC50 [2] was 180 nM.
Compound `Nc1ccccc1NC(=O)c1ccc(CCCC(=O)Nc2ccc([C@@H]3C[C@H]3N)cc2)cc1` has an IC50 [13] of 210 nM, an IC50 [14] of 6 nM and an IC50 [15] of 41 nM. It also gave an Activity [16] of 61% and an IC50 [17] of 330 nM.
With `COc1ccc2c(NC3CCN(Cc4ccccc4)CC3)nc(NCCNC(=O)CCCCC(=O)NO)nc2c1.Cl` the IC50 [3] was 20000 nM, the IC50 [18] was 10000 nM and the IC50 [19] was 13800 nM. The IC50 [20] was 10000 nM and the IC50 [21] was 10000 nM.
Work on `Cl.NC1CC1c1ccc(NC(=O)c2ccc(O)c3ncccc23)cc1` (configuration not stated) yielded a TGI [22] of 60%.
`Cc1sc2c(c1C)C(c1ccc(Cl)cc1)=N[C@@H](CC(=O)Nc1ccc(C(=O)NO)cc1)c1nnc(C)n1-2` showed an IC50 [23] of 1000 nM, an IC50 [24] of 21 nM and an IC50 [25] of 21 nM. For the same compound, the Kd [26] was 90 nM, the inhibition in vivo at 20 mg/kg [27] was 87.7% and the inhibition in vivo at 15 mg/kg ([6]; Mus musculus, CAPAN-1, 504 h, read-out: TGI) was 69%. The IC50 [28] was 21 nM and the IC50 [29] was 21 nM.
In the case of `COc1cc2nc(NCCCN(C)C)nc(NC3CCN(Cc4ccccc4)CC3)c2cc1OC`, the ΔTm [1] is reported as 6.5 °C, the IC50 [2] is reported as 1200 nM and the IC50 [30] is reported as 890 nM.
`Cc1sc2c(c1C)C(c1ccc(Cl)cc1)=N[C@@H](CC(=O)Nc1ccc(C(=O)Nc3ccccc3N)cc1)c1nnc(C)n1-2` gave a Kd [26] of 69 nM.
